Among the data in patent US7176224B2, “Oxazolyl-aryloxyacetic acid derivatives and their use as PPAR agonists” (Eli Lilly and Company, priority 2000, dated 2007) are IC50 values, retold here.

Assay [1] has as its target T1, huPPARγ (Homo sapiens, UniProt P37231).
T1 sequence (P37231 1-505): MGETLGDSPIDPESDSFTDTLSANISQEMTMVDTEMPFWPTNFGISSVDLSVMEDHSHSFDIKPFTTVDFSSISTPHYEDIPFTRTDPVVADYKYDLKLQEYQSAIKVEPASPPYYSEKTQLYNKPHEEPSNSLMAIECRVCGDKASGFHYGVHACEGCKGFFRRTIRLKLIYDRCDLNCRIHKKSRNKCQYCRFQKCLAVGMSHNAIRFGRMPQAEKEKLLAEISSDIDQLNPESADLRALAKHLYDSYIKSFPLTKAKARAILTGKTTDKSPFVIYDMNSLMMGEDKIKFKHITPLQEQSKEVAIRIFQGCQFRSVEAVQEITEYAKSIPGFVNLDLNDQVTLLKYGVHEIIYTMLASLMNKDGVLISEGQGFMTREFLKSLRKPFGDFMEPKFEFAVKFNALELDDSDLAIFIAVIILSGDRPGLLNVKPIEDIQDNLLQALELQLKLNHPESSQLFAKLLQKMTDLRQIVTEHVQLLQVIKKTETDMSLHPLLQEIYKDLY
T1 sequence (P19793 1-462 partner): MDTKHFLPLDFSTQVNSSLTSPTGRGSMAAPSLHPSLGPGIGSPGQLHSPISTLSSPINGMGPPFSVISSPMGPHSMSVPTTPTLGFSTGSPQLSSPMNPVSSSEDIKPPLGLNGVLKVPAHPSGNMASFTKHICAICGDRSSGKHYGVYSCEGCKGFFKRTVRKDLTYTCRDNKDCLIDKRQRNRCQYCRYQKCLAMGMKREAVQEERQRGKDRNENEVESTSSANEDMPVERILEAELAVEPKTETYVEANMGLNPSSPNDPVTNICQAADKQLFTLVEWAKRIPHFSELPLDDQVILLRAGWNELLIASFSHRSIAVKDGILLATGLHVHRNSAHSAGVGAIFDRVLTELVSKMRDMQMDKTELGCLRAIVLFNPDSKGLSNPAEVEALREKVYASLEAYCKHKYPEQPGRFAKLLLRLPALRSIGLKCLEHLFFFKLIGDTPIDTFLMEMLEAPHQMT
Briefly: DNA-dependent binding (ABCD binding), SPA, radioligand displacement. Conditions: tritium-labeled PPARγ agonist radioligand. As to the method: (§1) […] binding (ABCD binding) was carried out using SPA technology with PPAR receptors. Tritium-labeled PPARα and PPARγ agonists were used as radioligands for generating displacement curves and IC50 values with compounds of the invention. Cotransfection assays were carried out in CV-1 cells. The reporter plasmid contained an acylCoA oxidase (AOX) PPRE and TK promoter upstream of the luciferase reporter cDNA. Appropriate PPARs and RXRα were constitutively expressed using plasmids containing the CMV promoter. […] In order to eliminate such interference, a GAL4 chimeric system was used in which the DNA binding domain of the transfected PPAR was replaced by that of GAL4, and the GAL4 response element was utilized in place of the AOX PPRE. Cotransfection efficacy was determined relative to PPARα agonist and […] reference molecules. Efficacies were determined by computer fit to a concentration-response curve, or in some cases at a single high concentration of agonist (10 μM). For binding or cotransfection studies with receptors other than PPARs, similar assays were carried out using appropriate ligands, receptors, reporter constructs, etc., for that particular receptor.
(§2) These studies were carried out to evaluate the ability of compounds of the invention to bind to and/or activate various nuclear transcription factors, particularly huPPARα (“hu” indicates “human”) and huPPARγ. These studies provide in vitro data concerning efficacy and selectivity of compounds of the invention. Furthermore, binding and cotransfection data for compounds of the invention were compared with corresponding data for marketed compounds that act on either huPPARα or huPPARγ.
A general note: In a radioligand displacement assay an active substance lowers the binding of a labelled ligand.

Assay [2] deals with T2, huPPARα (Homo sapiens, UniProt Q07869).
T2 sequence (Q07869 1-468): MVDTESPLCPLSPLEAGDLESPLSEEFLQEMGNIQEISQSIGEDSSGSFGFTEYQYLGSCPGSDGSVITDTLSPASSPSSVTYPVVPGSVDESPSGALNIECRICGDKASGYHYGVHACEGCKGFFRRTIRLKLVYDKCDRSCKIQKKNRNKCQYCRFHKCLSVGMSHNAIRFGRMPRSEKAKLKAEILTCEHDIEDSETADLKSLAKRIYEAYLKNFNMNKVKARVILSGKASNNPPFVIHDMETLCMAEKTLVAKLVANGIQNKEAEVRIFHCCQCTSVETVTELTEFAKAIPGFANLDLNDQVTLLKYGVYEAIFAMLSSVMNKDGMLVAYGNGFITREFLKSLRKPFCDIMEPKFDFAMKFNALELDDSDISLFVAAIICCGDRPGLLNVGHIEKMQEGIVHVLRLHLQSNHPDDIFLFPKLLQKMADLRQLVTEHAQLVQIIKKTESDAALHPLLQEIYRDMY
T2 sequence (P19793 1-462 partner): T1 sequence (P19793 1-462 partner)
The description is as above. Conditions: tritium-labeled PPARα agonist radioligand. As to the method:
as §1, §2

SMILES strings stand for the structures. pIC50: −log10 of the molar value.

The pIC50 is the IC50 on a negative log10 scale, so that one unit is a factor of ten. Read a high pIC50 as a small IC50. In the case of `Cc1oc(-c2cccc(-c3ccc(F)cc3)c2)nc1CCOc1ccc(CC(C)(Oc2ccccc2)C(=O)O)cc1` (centres unmarked) [Example 4, 3-(4-{2-[2-(4′-Fluorobiphenyl-3-yl)-5-methyloxazol-4-yl]ethoxy}phenyl)-2-methyl-2-phenoxypropionic acid], the pIC50 in assay [1] is 7.39; in assay [2] it was 6.83.
